According to ChEMBL document CHEMBL5137121, “Spiroisoxazoline Inhibitors of Acetylcholinesterase from Pseudoceratina verrucosa. Quantitative Chiroptical Analysis of Configurational Heterogeneity, and Total Synthesis of (±)-Methyl Purpuroceratate C” (J Nat Prod, 2022):
pIC50: −log10 of the molar value.

Tests used:
Acetylcholinesterase = Acetylcholinesterase (Electrophorus electricus, UniProt O42275); assay: Inhibition of electric eel AChE using acetylthiocholine as substrate preincubated with enzyme for 30 mins followed by substrate addition by Ellman's method
[1] = Selectivity index, ratio of IC50 for horse BuChE to IC50 for electric eel AChE
Cholinesterase = Cholinesterase (Equus caballus, UniProt P81908); assay: Inhibition of horse BuChE using butyrylthiocholine as substrate preincubated with enzyme for 30 mins followed by substrate addition by Ellman's method
Sequence of Cholinesterase (P81908 whole entry): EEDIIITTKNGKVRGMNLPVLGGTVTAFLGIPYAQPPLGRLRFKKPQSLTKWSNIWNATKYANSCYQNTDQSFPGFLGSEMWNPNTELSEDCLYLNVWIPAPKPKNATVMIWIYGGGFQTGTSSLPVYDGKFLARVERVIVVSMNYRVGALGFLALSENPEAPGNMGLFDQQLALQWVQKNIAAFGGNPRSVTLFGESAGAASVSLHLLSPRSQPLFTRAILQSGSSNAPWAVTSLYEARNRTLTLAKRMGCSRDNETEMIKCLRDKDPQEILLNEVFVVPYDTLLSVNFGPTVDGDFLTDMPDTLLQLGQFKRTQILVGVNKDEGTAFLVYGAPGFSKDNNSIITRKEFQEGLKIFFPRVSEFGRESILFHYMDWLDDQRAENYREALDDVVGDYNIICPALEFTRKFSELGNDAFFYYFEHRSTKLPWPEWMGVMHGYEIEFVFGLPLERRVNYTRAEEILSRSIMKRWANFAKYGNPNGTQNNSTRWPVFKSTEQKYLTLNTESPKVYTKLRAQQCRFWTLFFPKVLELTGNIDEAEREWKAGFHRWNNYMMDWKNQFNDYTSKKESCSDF

Sequence of Acetylcholinesterase (O42275 whole entry): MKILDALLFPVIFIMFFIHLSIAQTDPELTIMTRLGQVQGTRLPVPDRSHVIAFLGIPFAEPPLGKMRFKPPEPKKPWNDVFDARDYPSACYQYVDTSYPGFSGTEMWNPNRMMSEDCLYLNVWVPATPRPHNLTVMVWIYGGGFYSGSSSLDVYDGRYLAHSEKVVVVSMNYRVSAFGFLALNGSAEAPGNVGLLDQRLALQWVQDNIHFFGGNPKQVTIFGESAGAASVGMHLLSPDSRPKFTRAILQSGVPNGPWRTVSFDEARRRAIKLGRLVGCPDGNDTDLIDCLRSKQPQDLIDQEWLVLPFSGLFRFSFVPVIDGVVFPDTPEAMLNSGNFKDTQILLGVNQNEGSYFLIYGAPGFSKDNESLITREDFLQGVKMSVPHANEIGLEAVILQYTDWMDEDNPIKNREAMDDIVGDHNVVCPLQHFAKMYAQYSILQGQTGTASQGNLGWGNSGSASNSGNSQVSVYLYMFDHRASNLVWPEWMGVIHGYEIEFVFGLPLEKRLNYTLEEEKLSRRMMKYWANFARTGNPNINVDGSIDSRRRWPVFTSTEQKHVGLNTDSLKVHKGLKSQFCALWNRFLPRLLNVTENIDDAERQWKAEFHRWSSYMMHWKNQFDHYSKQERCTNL

## COC1=C(Br)[C@H](O)[C@@]2(C=C1Br)CC(C(=O)NCCc1cc(Br)c(OCCC(C(=O)[O-])[N+](C)(C)C)c(Br)c1)=NO2 (stereo not given in full)
Acetylcholinesterase
  pIC50: 5.32
[1]
  Ratio IC50: 2.1
Cholinesterase
  pIC50: 5.00

## COC1=C(Br)[C@H](O)[C@@]2(C=C1Br)CC(C(=O)NCCCOc1c(Br)cc(C[C@H](N)C(=O)O)cc1Br)=NO2
Acetylcholinesterase
  pIC50: 4.70
[1]
  Ratio IC50: > 5
Cholinesterase
  pIC50: < 4.00

## COC1=C(Br)[C@H](O)[C@@]2(C=C1Br)CC(C(N)=O)=NO2
Acetylcholinesterase
  pIC50: 5.48
[1]
  Ratio IC50: 4.6
Cholinesterase
  pIC50: 4.81

## COC1=C(Br)[C@H](O)[C@@]2(C=C1Br)CC(C(=O)NCCc1cc(Br)c(O)c(Br)c1)=NO2
Acetylcholinesterase
  pIC50: 5.24
[1]
  Ratio IC50: 1.9
Cholinesterase
  pIC50: 4.97

## COC1=C(Br)[C@H](O)[C@@]2(C=C1Br)CC(C(=O)NCCCCCNC(=N)N)=NO2 [APLYSINAMISINE II]
Acetylcholinesterase
  pIC50: 6.11
[1]
  Ratio IC50: 13
Cholinesterase
  pIC50: 4.99
